The values that follow come from ChEMBL document CHEMBL4028801, “A multifactorial approach to hepatobiliary transporter assessment enables improved therapeutic compound development” (Toxicol Sci, 2013).

The structures appear in SMILES notation. Structures can show the parent of a compound that is named as a salt. Positions of bridges follow the written chain, without caps; N, C: chain ends. Non-standard residues stand in square brackets, D forms with d. Residues, ends and D or L forms follow the SMILES beside them. hArg = N=C(N)NCCCC[C@H](N)C(=O)O; Orn = NCCC[C@H](N)C(=O)O; Mpa = O=C(O)CCS Bounds are passed on as bounds.

The target in experiment [1] is ATP-binding cassette sub-family C member 3 (Homo sapiens, UniProt O15438). The experiment is described as follows: Inhibition of human MRP3 overexpressed in Sf9 insect cell membrane vesicles assessed as uptake of [3H]-estradiol-17beta-D-glucuronide in presence of ATP and GSH measured after 10 mins by membrane vesicle transport assay. In kind it is ADME, cell-based.

Experiment [2] has as its target ATP-binding cassette sub-family C member 2 (Homo sapiens, UniProt Q92887). The experiment in a line: Inhibition of human MRP2 overexpressed in Sf9 cell membrane vesicles assessed as uptake of [3H]-estradiol-17beta-D-glucuronide in presence of ATP and GSH measured after 20 mins by membrane vesicle transport assay.
Another experiment concerns the target Bile salt export pump (Homo sapiens, UniProt O95342). The experiment in a line: Inhibition of human BSEP overexpressed in Sf9 cell membrane vesicles assessed as uptake of [3H]-taurocholate in presence of ATP measured after 15 to 20 mins by membrane vesicle transport assay. The experiment is classed as ADME, cell-based.
Experiment [3] addresses T1, ATP-binding cassette sub-family C member 4 (Homo sapiens, UniProt O15439).
T1 sequence (O15439 whole entry): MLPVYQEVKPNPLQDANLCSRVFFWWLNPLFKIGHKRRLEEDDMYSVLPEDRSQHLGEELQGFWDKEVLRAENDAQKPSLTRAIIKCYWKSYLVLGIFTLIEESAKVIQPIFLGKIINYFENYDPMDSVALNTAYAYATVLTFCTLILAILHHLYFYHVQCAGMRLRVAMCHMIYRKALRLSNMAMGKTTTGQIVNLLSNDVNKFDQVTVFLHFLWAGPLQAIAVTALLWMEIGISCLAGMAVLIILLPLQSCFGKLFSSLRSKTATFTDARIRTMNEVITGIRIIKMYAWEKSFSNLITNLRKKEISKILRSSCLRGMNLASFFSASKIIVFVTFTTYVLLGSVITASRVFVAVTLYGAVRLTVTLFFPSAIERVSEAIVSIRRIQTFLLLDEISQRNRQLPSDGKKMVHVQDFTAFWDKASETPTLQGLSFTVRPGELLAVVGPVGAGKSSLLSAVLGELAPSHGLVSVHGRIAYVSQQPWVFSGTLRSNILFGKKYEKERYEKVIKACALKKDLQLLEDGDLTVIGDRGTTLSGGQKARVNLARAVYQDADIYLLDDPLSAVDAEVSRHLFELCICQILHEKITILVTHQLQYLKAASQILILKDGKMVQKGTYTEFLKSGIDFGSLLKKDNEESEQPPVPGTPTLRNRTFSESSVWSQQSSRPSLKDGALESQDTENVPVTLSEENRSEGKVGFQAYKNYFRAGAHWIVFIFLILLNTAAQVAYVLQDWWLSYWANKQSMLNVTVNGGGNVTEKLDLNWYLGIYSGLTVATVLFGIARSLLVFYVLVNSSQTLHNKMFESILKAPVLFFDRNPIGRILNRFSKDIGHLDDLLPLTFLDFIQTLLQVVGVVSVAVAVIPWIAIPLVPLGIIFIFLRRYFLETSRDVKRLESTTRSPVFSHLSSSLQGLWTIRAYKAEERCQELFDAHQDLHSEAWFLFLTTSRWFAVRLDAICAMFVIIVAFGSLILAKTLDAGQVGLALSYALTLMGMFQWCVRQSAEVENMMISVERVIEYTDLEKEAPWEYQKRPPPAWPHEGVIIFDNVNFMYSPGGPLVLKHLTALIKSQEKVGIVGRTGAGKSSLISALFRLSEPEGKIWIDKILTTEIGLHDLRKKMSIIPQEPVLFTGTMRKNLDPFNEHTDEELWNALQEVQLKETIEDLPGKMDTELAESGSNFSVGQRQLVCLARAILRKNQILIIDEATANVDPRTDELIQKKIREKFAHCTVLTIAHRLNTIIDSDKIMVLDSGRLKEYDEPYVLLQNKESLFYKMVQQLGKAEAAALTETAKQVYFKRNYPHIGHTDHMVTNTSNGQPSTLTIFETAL
The experiment is described as follows: Inhibition of human MRP4 overexpressed in Sf9 cell membrane vesicles assessed as uptake of [3H]-estradiol-17beta-D-glucuronide in presence of ATP and GSH measured after 20 mins by membrane vesicle transport assay. The experiment is classed as ADME, cell-based.

ATP-binding cassette sub-family C member 2, sequence (Q92887 whole entry): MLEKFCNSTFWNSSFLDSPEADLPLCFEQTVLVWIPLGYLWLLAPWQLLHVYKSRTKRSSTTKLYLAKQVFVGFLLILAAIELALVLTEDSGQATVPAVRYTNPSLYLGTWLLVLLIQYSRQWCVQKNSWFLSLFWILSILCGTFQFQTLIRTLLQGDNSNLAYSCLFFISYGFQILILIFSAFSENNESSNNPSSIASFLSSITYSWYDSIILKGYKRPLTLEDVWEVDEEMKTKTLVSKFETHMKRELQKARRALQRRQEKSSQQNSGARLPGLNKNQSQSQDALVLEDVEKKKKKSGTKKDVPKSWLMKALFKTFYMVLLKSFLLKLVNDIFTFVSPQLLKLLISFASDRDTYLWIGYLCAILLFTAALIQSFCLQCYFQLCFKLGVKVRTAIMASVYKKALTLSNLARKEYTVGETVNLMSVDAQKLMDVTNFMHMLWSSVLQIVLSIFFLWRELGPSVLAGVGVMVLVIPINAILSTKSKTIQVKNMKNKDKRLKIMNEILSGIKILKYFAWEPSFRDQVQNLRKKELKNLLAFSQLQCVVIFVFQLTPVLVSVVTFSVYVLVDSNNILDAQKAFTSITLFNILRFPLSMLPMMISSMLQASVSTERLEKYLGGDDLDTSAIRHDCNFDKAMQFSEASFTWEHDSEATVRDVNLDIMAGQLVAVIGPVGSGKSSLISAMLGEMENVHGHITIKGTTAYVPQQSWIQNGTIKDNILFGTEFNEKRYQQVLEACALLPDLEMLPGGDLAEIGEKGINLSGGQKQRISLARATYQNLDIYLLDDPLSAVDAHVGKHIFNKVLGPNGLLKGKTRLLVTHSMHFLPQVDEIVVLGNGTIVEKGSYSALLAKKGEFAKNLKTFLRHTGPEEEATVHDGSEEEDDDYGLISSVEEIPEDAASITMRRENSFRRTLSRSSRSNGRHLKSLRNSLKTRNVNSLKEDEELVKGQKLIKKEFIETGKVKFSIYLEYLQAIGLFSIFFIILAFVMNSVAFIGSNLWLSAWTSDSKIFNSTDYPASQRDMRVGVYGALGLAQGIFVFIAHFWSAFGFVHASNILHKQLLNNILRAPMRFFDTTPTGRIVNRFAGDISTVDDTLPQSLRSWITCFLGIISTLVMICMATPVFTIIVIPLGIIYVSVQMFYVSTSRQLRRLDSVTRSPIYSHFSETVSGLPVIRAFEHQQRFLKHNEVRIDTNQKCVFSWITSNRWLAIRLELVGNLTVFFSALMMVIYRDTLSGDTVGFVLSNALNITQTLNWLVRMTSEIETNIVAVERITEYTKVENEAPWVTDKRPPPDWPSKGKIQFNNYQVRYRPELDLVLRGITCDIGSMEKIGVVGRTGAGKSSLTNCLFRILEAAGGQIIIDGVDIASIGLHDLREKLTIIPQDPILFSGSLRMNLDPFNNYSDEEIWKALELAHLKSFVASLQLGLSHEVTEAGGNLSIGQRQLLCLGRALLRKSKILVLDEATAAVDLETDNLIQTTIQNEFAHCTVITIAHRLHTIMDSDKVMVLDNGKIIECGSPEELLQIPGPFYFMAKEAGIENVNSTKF
ATP-binding cassette sub-family C member 3, sequence (O15438 whole entry): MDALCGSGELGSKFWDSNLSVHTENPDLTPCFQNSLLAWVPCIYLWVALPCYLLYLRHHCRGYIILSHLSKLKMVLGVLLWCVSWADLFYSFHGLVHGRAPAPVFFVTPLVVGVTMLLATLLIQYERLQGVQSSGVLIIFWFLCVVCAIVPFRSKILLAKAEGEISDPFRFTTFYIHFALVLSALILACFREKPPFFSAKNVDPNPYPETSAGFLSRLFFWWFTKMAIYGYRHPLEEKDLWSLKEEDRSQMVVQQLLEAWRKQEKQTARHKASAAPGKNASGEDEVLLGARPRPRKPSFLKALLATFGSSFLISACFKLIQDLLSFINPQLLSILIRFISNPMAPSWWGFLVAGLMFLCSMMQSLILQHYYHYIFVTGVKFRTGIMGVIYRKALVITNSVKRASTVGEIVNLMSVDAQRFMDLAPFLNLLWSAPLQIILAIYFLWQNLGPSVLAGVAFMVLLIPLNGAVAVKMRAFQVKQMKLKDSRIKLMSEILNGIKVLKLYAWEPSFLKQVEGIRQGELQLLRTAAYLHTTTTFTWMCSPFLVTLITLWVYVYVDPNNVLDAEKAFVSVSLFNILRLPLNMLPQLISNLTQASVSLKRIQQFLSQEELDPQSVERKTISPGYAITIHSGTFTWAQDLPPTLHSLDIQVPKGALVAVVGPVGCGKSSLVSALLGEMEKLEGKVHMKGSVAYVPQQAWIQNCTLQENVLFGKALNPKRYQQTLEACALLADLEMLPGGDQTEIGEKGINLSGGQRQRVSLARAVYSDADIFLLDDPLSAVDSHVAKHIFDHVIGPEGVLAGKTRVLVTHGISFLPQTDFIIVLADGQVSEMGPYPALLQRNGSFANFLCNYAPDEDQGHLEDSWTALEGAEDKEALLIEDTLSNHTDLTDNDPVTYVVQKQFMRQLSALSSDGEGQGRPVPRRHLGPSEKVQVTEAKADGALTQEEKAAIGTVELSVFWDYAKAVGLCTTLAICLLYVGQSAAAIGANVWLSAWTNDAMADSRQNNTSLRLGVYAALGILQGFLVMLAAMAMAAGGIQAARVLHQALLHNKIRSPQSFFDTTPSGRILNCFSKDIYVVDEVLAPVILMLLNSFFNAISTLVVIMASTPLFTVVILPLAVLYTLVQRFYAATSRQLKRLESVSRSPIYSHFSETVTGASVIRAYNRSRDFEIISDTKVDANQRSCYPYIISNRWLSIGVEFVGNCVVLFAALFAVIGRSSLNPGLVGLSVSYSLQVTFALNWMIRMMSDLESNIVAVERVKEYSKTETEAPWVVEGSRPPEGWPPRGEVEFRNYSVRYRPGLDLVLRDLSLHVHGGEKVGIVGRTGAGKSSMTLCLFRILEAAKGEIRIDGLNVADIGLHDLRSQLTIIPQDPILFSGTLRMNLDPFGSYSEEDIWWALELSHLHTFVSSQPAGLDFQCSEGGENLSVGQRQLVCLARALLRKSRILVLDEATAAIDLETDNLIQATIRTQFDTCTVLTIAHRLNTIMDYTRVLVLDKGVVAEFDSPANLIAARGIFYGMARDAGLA
Bile salt export pump, sequence (O95342 whole entry): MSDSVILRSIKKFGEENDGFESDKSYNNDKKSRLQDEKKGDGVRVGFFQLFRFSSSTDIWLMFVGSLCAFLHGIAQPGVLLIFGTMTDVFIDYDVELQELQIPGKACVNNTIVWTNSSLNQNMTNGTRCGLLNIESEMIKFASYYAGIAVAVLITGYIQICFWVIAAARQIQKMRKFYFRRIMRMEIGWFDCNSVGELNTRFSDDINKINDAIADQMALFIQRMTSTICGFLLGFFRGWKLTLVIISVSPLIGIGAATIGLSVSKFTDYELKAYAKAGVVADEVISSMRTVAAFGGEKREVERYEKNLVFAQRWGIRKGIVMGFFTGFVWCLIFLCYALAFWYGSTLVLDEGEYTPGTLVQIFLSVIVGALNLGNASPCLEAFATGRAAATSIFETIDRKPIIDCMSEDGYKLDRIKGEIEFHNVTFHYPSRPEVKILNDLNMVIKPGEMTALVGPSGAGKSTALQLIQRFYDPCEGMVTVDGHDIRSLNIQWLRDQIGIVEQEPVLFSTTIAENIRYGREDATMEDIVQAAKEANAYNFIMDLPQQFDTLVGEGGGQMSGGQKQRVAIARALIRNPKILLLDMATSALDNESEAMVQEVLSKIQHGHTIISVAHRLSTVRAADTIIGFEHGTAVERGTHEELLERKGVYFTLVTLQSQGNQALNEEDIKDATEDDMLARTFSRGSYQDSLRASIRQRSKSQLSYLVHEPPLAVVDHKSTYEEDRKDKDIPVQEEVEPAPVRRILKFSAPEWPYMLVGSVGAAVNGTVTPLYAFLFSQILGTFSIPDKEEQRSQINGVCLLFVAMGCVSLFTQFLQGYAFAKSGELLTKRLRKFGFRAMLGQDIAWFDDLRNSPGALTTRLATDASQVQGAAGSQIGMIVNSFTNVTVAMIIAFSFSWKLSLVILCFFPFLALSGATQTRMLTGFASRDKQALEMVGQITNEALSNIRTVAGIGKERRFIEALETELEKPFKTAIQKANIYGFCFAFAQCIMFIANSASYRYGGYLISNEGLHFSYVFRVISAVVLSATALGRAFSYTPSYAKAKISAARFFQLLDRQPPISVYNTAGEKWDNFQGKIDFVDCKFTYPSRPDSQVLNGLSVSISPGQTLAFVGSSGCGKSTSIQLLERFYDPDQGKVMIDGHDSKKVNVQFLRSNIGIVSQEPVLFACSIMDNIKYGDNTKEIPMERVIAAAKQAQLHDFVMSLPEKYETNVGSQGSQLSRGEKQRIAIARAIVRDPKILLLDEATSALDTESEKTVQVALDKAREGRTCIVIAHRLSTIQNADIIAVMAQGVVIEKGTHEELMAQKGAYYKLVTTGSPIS

As a reminder, the IC50 is the concentration needed to halve the response being measured. Take `Cc1cccn2c(=O)c(-c3nnn[nH]3)cnc12` [PEMIROLAST POTASSIUM]: the IC50 (in experiment [1]; in experiment [2]; on Bile salt export pump; in experiment [3]) was more than 133 µM throughout.
On to `Cc1cccc(Nc2cc(Cl)nc(SCC(=O)O)n2)c1C` [PIRINIXIC ACID], for which the half-inhibitory concentration (IC50) in experiment [1] was more than 133 µM; in experiment [2], more than 133 µM; on Bile salt export pump, 99 µM; in experiment [3], 44.9 µM.
Consider `CO/N=C(\C(=O)N[C@@H]1C(=O)N2C(C(=O)OC(C)OC(C)=O)=C(COC(N)=O)CS[C@H]12)c1ccco1` (stereo not given in full) [CEFUROXIME AXETIL], for which the IC50 in experiment [1] is more than 133 µM; in experiment [2] it was more than 133 µM; at Bile salt export pump, more than 133 µM; in experiment [3] it was 28 µM.
Turning to `COc1ccc(Cl)cc1[C@]1(F)C(=O)Nc2cc(C(F)(F)F)ccc21` [FLINDOKALNER], the IC50 (in experiment [1]; in experiment [2]; on Bile salt export pump; in experiment [3]) was more than 133 µM in each case.
Take `N=C(N)NCCCC[C@@H]1NC(=O)CCSSC[C@@H](C(N)=O)NC(=O)[C@@H]2CCCN2C(=O)[C@H](Cc2c[nH]c3ccccc23)NC(=O)[C@H](CC(=O)O)NC(=O)CNC1=O` ([Mpa][hArg]GDWPC-NH2; disulfide 1-7): the half-maximal inhibitory concentration (IC50) (in experiment [1]; in experiment [2]; at Bile salt export pump; in experiment [3]) was more than 133 µM each time.
Take `CCC(=O)NCC[C@@H]1CCc2ccc3c(c21)CCO3` [RAMELTEON]: the half-inhibitory concentration (IC50) (in experiment [1]; in experiment [2]; on Bile salt export pump; in experiment [3]) was more than 133 µM each time.
Take `CN1CCN(C(=O)O[C@H]2c3nccnc3C(=O)N2c2ccc(Cl)cn2)CC1` [ESZOPICLONE]: the IC50 (in experiment [1]; in experiment [2]; at Bile salt export pump; in experiment [3]) was more than 133 µM each time.
As to `CC(C)[C@H]1CC[C@H](C(=O)N[C@H](Cc2ccccc2)C(=O)O)CC1` [NATEGLINIDE], the IC50 in experiment [1] was 104 µM; in experiment [2], more than 133 µM; on Bile salt export pump, more than 133 µM; in experiment [3], more than 133 µM.
Turning to `Cc1ncc([N+](=O)[O-])n1CC(O)CCl` (stereo not given) [ORNIDAZOLE], the IC50 (in experiment [1]; in experiment [2]; on Bile salt export pump; in experiment [3]) was more than 133 µM in each case.
Turning to `CNS(=O)(=O)Cc1ccc2[nH]cc(CCN(C)C)c2c1`, the IC50 (in experiment [1]; in experiment [2]; on Bile salt export pump; in experiment [3]) was more than 133 µM each time.
Regarding `CN(C)CCc1c[nH]c2ccc(C[C@H]3COC(=O)N3)cc12` [ZOLMITRIPTAN], the IC50 (in experiment [1]; in experiment [2]; on Bile salt export pump; in experiment [3]) was more than 133 µM throughout.
Regarding `COc1c(N2CCNC(C)C2)c(F)cc2c(=O)c(C(=O)O)cn(C3CC3)c12` (stereo not given) [GATIFLOXACIN], the IC50 (in experiment [1]; in experiment [2]; on Bile salt export pump; in experiment [3]) was more than 133 µM each time.
`CCn1cc(C(=O)O)c(=O)c2cc(F)c(N3CCNCC3)nc21` [ENOXACIN]: the IC50 (in experiment [1]; in experiment [2]; on Bile salt export pump; in experiment [3]) was more than 133 µM throughout.
For `CCN(CC)CCNC(=O)c1cc(Cl)c(N)cc1OC` [METOCLOPRAMIDE], the IC50 (in experiment [1]; in experiment [2]; at Bile salt export pump; in experiment [3]) was more than 133 µM throughout.
`N#C[C@@H]1CCCN1C(=O)CNC12CC3CC(CC(O)(C3)C1)C2` [VILDAGLIPTIN]: the IC50 (in experiment [1]; in experiment [2]; at Bile salt export pump; in experiment [3]) was more than 133 µM throughout.
Consider `O=C(O)CCNC(=O)c1ccccc1` [BETAMIPRON], for which the IC50 (in experiment [1]; in experiment [2]; at Bile salt export pump; in experiment [3]) was more than 133 µM throughout.
On to `NC1=NC(=O)C(c2ccccc2)O1` (stereo not given) [PEMOLINE], for which the IC50 (in experiment [1]; in experiment [2]; at Bile salt export pump; in experiment [3]) was more than 133 µM each time.
As to `CC1(C)S[C@@H]2[C@H](NC(=O)[C@H](N)c3ccc(O)cc3)C(=O)N2[C@H]1C(=O)O` [AMOXICILLIN], the IC50 (in experiment [1]; in experiment [2]; on Bile salt export pump; in experiment [3]) was more than 133 µM in each case.
Consider `CCOc1ccc(C[C@H]2NC(=O)CCSSC[C@@H](C(=O)N3CCC[C@H]3C(=O)N[C@@H](CCCN)C(=O)NCC(N)=O)NC(=O)[C@H](CC(N)=O)NC(=O)[C@H]([C@@H](C)O)NC(=O)[C@H]([C@@H](C)CC)NC2=O)cc1` [ATOSIBAN] ([Mpa][dY](Et)ITNCP[Orn]G-NH2; disulfide 1-6), for which the IC50 (in experiment [1]; in experiment [2]; at Bile salt export pump; in experiment [3]) was more than 133 µM in each case.
In the case of `N=C(N)NC(=O)Cc1c(Cl)cccc1Cl` [GUANFACINE], the IC50 (in experiment [1]; in experiment [2]; on Bile salt export pump; in experiment [3]) was more than 133 µM in each case.
For the molecule `CNCCCN1c2ccccc2CCc2ccccc21` [DESIPRAMINE], the IC50 (in experiment [1]; in experiment [2]; at Bile salt export pump; in experiment [3]) was more than 133 µM throughout.
As for `Nc1cc(-c2ccncc2)c[nH]c1=O` [INAMRINONE], the IC50 (in experiment [1]; in experiment [2]; at Bile salt export pump; in experiment [3]) was more than 133 µM throughout.
`NCC1O[C@H](O[C@H]2[C@@H](O)[C@H](O[C@H]3[C@H](O)[C@@H](N)C[C@@H](N)[C@@H]3O[C@H]3O[C@H](CN)[C@@H](O)[C@H](O)[C@H]3N)O[C@@H]2CO)[C@H](N)[C@@H](O)[C@@H]1O` (stereo not given in full): the IC50 (in experiment [1]; in experiment [2]; on Bile salt export pump; in experiment [3]) was more than 133 µM throughout.
As for `CCN(CC)CCOc1ccc2c(c1)C(=O)c1cc(OCCN(CC)CC)ccc1-2` [TILORONE], the half-maximal inhibitory concentration (IC50) (in experiment [1]; in experiment [2]; on Bile salt export pump; in experiment [3]) was more than 133 µM in each case.
With `CCN(CCO)CCCC(C)Nc1ccnc2cc(Cl)ccc12` (stereo not given) [HYDROXYCHLOROQUINE SULFATE], the IC50 (in experiment [1]; in experiment [2]; at Bile salt export pump; in experiment [3]) was more than 133 µM in each case.
`Clc1ccc(CO/N=C(\Cn2ccnc2)c2ccc(Cl)cc2Cl)c(Cl)c1` [OXICONAZOLE NITRATE]: the IC50 is more than 133 µM in experiment [1], more than 133 µM in experiment [2], 49.3 µM at Bile salt export pump and more than 133 µM in experiment [3].
As to `CN1CCc2cccc3c2[C@H]1Cc1ccc(O)c(O)c1-3` [APOMORPHINE], the IC50 (in experiment [1]; in experiment [2]; at Bile salt export pump; in experiment [3]) was more than 133 µM throughout.
For `O=C(NCCNCC(O)COc1ccc(O)cc1)N1CCOCC1` (stereo not given) [XAMOTEROL], the half-maximal inhibitory concentration (IC50) (in experiment [1]; in experiment [2]; on Bile salt export pump; in experiment [3]) was more than 133 µM each time.
Consider `CC(=O)NS(=O)(=O)c1ccc(N)cc1`, for which the IC50 (in experiment [1]; in experiment [2]; at Bile salt export pump; in experiment [3]) was more than 133 µM throughout.
As for `c1ccc(-c2ccc(C(c3ccccc3)n3ccnc3)cc2)cc1` (stereo not given) [BIFONAZOLE], the IC50 in experiment [1] is more than 133 µM; in experiment [2] it was more than 133 µM; at Bile salt export pump it was 27.1 µM; in experiment [3] it was more than 133 µM.
